TGI data for 19 compounds are collected here from PubChem BioAssay (NCI).

Molecules are shown by their SMILES.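 The compound was tested at five concentrations on cells cultured in 96-well plates, with a 48-hour exposure period. TGI: concentration producing complete growth inhibition.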

Among the test systems are XF 498 CNS; HCC-2998 colon; KM20L2 colon; SNB-78 CNS; LXFL 529 NSCLC; HOP-18 NSCLC; DMS 114 small cell lung; M19-MEL melanoma; KM12 colon; DMS 273 small cell lung; DLD-1 colon; P388/ADR leukemia; P388 leukemia; SN12K1 renal; RXF-631 renal; MDA-MB-231 breast.
Common to all, as to assay: NCI tumour cell line growth inhibition, 48 h

For the compound `CN1C(=O)CC2(C)c3cc(O)cc(Br)c3N(C)C12` (configuration not stated), the TGI in the assay with XF 498 CNS, in the assay on HCC-2998 colon, with KM20L2 colon, in the assay on SNB-78 CNS, with LXFL 529 NSCLC and in the assay with HOP-18 NSCLC was above 100 µM throughout. Besides, the TGI in the assay on DMS 114 small cell lung, with M19-MEL melanoma and in the assay on KM12 colon was above 100 µM each time.

With `CCc1cc(C)cc2[n+]1CC=C2`, the TGI in the assay with XF 498 CNS is 20.4 µM; with HCC-2998 colon it was above 100 µM; with KM20L2 colon, 95.6 µM; in the assay with SNB-78 CNS it was above 100 µM; in the assay with LXFL 529 NSCLC, 79.2 µM; in the assay on HOP-18 NSCLC, 0.0991 µM. For the same compound, the TGI with DMS 114 small cell lung is 44.3 µM; in the assay on DMS 273 small cell lung it was 6.55 µM; with M19-MEL melanoma it was 52.4 µM; with KM12 colon it was above 100 µM.

Turning to `CC(=O)c1ccccc1NC(=O)C(=O)C(C(=O)c1ccc2ccccc2c1)C1OC(=O)c2ccccc21` (configuration not stated), the TGI was 18.1 µM in the assay with XF 498 CNS; 18.3 µM in the assay on HCC-2998 colon; 94 µM in the assay on KM20L2 colon; 84.8 µM in the assay with SNB-78 CNS; 26.3 µM with LXFL 529 NSCLC; 38.7 µM in the assay on HOP-18 NSCLC. Moreover, the TGI is 43 µM in the assay on DMS 114 small cell lung; 32.3 µM in the assay on DLD-1 colon; 44.5 µM with DMS 273 small cell lung; 22.8 µM with M19-MEL melanoma; 52.2 µM in the assay with KM12 colon.

For `CC[C@@]1(O)C[C@H](OC2CC(N(C)C)C(O)C(C)O2)c2c(cc3c(c2O)C(=O)c2c(O)ccc(O)c2C3=O)[C@H]1C(=O)OC` (some centres not stated), the TGI in the assay on P388/ADR leukemia was 0.0561 µM; in the assay with XF 498 CNS it was 0.463 µM; in the assay with HCC-2998 colon, 0.579 µM; with KM20L2 colon, 0.969 µM; in the assay with SNB-78 CNS, 1.34 µM; in the assay with HOP-18 NSCLC it was 1.3 µM. Further, the TGI in the assay on P388 leukemia came to 0.0317 µM; with DMS 114 small cell lung, 0.489 µM; in the assay with DLD-1 colon, 0.891 µM; with DMS 273 small cell lung it was 0.406 µM; in the assay on M19-MEL melanoma, 0.288 µM; with SN12K1 renal, 0.256 µM. In the assay on KM12 colon, the TGI was 1 µM.

Turning to `O=C1C=C(Nc2ccccc2C(=O)CC(=O)C(=O)Nc2ccc(Cl)cc2)c2ccccc2C1=O`, the TGI with XF 498 CNS is 28.6 µM; in the assay with HCC-2998 colon, 35.8 µM; in the assay on KM20L2 colon it was above 100 µM; in the assay with SNB-78 CNS it was 81 µM; with LXFL 529 NSCLC, 42.6 µM; in the assay with HOP-18 NSCLC, 8.72 µM. Moreover, the TGI in the assay on RXF-631 renal is above 80.8 µM; in the assay with DMS 114 small cell lung, 16.8 µM; in the assay with DLD-1 colon it was 35.7 µM; in the assay with DMS 273 small cell lung, 31.1 µM; with M19-MEL melanoma it was 4.41 µM; in the assay with KM12 colon it was 54.6 µM.

Turning to `COC(=O)[C@H](CC(C)C)NC(=O)[C@H](Cc1ccccc1)N1CC2C=CC1C2` (some centres not stated), the TGI in the assay with XF 498 CNS, with HCC-2998 colon, in the assay on KM20L2 colon, with LXFL 529 NSCLC, in the assay with HOP-18 NSCLC and in the assay on DMS 114 small cell lung was above 100 µM each time. Moreover, the TGI in the assay with DMS 273 small cell lung, in the assay with M19-MEL melanoma and in the assay with KM12 colon was above 100 µM in each case.

As for `Nc1nc(NCCOCP(=O)(O)O)c([N+](=O)[O-])c(=O)[nH]1`, the TGI in the assay with XF 498 CNS, with HCC-2998 colon, in the assay on KM20L2 colon, with SNB-78 CNS, in the assay with LXFL 529 NSCLC and with HOP-18 NSCLC was above 100 µM throughout. For the same compound, the TGI in the assay on DLD-1 colon, with DMS 273 small cell lung, in the assay on M19-MEL melanoma and in the assay on KM12 colon was above 100 µM throughout.

As to `CCC12CCCN(Cc3ccccc3)C1c1c(n(C)c3ccccc13)C(CO)C2` (configuration not stated), the TGI worked out at 79.7 µM with XF 498 CNS; 121 µM in the assay with HCC-2998 colon; 78.1 µM in the assay on KM20L2 colon; 87.4 µM with LXFL 529 NSCLC; 142 µM in the assay with RXF-631 renal; 84.5 µM in the assay with DMS 114 small cell lung. Moreover, the TGI in the assay with DLD-1 colon is above 257 µM; in the assay with DMS 273 small cell lung, 89.7 µM; in the assay with M19-MEL melanoma, 125 µM; in the assay on KM12 colon, 89.4 µM.

For `CC(C)(C)N/N=C(\C(=O)Nc1cccc(Cl)c1)C1C(=O)Nc2ccccc2S1=O` (configuration not stated), the TGI with XF 498 CNS, in the assay on HCC-2998 colon, in the assay with KM20L2 colon, in the assay on LXFL 529 NSCLC, with HOP-18 NSCLC and in the assay on RXF-631 renal was above 100 µM in each case. The TGI in the assay on DMS 114 small cell lung, with DLD-1 colon, in the assay on DMS 273 small cell lung, in the assay with M19-MEL melanoma and in the assay with KM12 colon was above 100 µM throughout.

Take `Cn1c2ccc(F)cc2c2ccc3c(c21)C(=O)C=CC3=O`: the TGI with HCC-2998 colon is 67.7 µM; in the assay on MDA-MB-231 breast, 16.5 µM; with KM12 colon it was above 91.9 µM.

Regarding `CC(C)NC(=O)OCc1c(COC(=O)NC(C)C)c(-c2ccc[n+](COC(=O)Cc3ccccc3)c2)n2c1CCC2`, the TGI is above 100 µM in the assay with HCC-2998 colon, 74.7 µM in the assay on MDA-MB-231 breast and above 100 µM with KM12 colon.

On to `O=c1[nH]c(=O)c2ncn(-c3ccc([N+](=O)[O-])cn3)c2[nH]1`, for which the TGI with HCC-2998 colon, in the assay on MDA-MB-231 breast and with KM12 colon was above 100 µM in each case.

As for `CN(C)CN1CSC(=S)N(CN(C)C)C1`, the TGI in the assay with HCC-2998 colon, in the assay on MDA-MB-231 breast and in the assay on KM12 colon was above 100 µM in each case.

For `COC(=O)c1c(O)ccc2c1c1cc3ccccc3cc1n2Cc1cc(OC)cc(OC)c1`, the figures for the TGI in the assay with HCC-2998 colon, in the assay with MDA-MB-231 breast and in the assay on KM12 colon were above 100 µM, above 100 µM and above 27.1 µM, respectively.

Regarding `COC(=O)CN(CC(=O)NCCCBr)C1CCCCC1N(CC(=O)OC)CC(=O)OC` (configuration not stated), the TGI in the assay with HCC-2998 colon, in the assay with MDA-MB-231 breast and in the assay on KM12 colon was above 100 µM each time.

Turning to `O=c1[nH]c2ccccc2c(O)c1Cc1ccccc1`, the TGI in the assay on HCC-2998 colon, in the assay on MDA-MB-231 breast and with KM12 colon was above 100 µM throughout.

For `COc1ccc2c(c1)Oc1cc(O)ccc1[C@H]2c1ccccc1C(=O)NC(C)c1ccccc1` (some centres not stated), the TGI with HCC-2998 colon came to 30.3 µM; with KM20L2 colon, 35.3 µM; in the assay on SNB-78 CNS, 33.5 µM; in the assay on LXFL 529 NSCLC it was 28.7 µM; with DMS 114 small cell lung, 24.9 µM; with DLD-1 colon, 43.4 µM. Also, the TGI with DMS 273 small cell lung turned out to be 28.4 µM; in the assay on M19-MEL melanoma, 29.4 µM; in the assay with KM12 colon it was 36.5 µM.

For the compound `CCC(=O)Nc1cccc(N=Cc2ccc(OC(=O)/C=C\c3ccccc3)cc2)c1`, the TGI in the assay on HCC-2998 colon, with MDA-MB-231 breast and in the assay with KM12 colon was above 75 µM throughout.

On to `O=C(Cc1nc2ccc(C(=O)c3ccccc3)cc2[nH]c1=O)C(=O)Nc1nc2ccccc2[nH]1`, for which the TGI was above 100 µM in the assay with HCC-2998 colon; above 100 µM in the assay on KM20L2 colon; above 100 µM in the assay on LXFL 529 NSCLC; above 100 µM in the assay with HOP-18 NSCLC; above 100 µM in the assay with RXF-631 renal; 79.4 µM with DMS 114 small cell lung. Moreover, the TGI in the assay with DMS 273 small cell lung, with M19-MEL melanoma and in the assay on KM12 colon was above 100 µM in each case.
